Molecular target: human NAMPT (Homo sapiens, UniProt P43490)
Assay: Human recombinant enzyme assay (NMN fluorescence biochemical assay, activation of NAMPT)
Details: Table A, human recombinant NAMPT, NMN formation, 60 min; for EC50: read-out: EC50 Human
Description: Compounds described herein were assayed for their ability to stimulate the synthesis of nicotinamide mononucleotide (NMN) by the enzyme NAMPT. The human recombinant enzyme assay measures the activation of the enzyme activity by compounds using recombinant enzyme and substrates in a buffered cell-free system. The assay conditions closely mimic cellular environments. Dose responses were measured using an assay to detect the formation of nicotinamide mono-nucleotide. All experiments were performed in the 384-well format. […] Enzyme reactions were initiated with the addition of 10 μL of a solution containing the substrates. The final assay conditions were as follows: 6 nM human NAMPT, 2.5 mM ATP, 20 μM PRPP and 150 μM nicotinamide in 50 mM HEPES, pH 7.2, 1 mM DTT, 1 mM CHAPS 50 mM NaCl, 100 mM MgCl2. Following an incubation of 60 min at ambient temperature, 10 μL of 20% acetophenone in DMSO was added, followed by 10 μL of 2 M KOH and 40 μL of formic acid. The plates were read for fluorescence (Excitation/Emission=355 nm/460 nm) using an EnVision plate reader after 40 mins of incubation at ambient temperature.

human NAMPT, sequence (P43490 whole entry): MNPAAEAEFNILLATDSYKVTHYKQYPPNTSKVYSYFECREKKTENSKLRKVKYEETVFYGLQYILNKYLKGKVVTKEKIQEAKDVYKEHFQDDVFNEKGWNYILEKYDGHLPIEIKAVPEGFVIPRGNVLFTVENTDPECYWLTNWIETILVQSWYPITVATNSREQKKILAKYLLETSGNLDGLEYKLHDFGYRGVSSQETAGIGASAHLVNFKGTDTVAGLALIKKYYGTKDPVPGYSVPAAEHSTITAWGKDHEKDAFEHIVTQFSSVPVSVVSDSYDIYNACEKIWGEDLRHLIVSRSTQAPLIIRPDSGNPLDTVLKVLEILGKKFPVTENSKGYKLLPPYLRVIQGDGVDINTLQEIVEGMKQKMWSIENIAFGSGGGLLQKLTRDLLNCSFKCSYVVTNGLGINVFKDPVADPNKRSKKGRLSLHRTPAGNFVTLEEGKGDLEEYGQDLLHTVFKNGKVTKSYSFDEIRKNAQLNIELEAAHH

| AC1.4 Human | EC50 | Compound |
| --- | --- | --- |
| 1.6 µM | 0.6 µM | O=C(NCc1ccc(Cl)cc1)NC1CC2(CC(Cc3cccnc3)C2)C1 (stereo not shown) [Compound 345, 1-(4-chlorobenzyl)-3-(6-(pyridin-3-ylmethyl)spiro[3.3]heptan-2-yl)urea] |
| 1.0 µM | 26.1 µM | COc1ccc(CNC(=O)NC2CC3(CC(Cc4ccc(C)nc4)C3)C2)cc1 (stereo not shown) [Compound 337, 1-(4-methoxybenzyl)-3-(6-((6-methylpyridin-3-yl)methyl)spiro[3.3]heptan-2-yl)urea] |
| 4.0 µM | 38.7 µM | COc1ccc(CNC(=O)NC2CC3(C2)CC(OCc2cccnc2)C3)cc1 (stereo not shown) [Compound 351, 1-(4-methoxybenzyl)-3-(6-(pyridin-3-ylmethoxy)spiro[3.3]heptan-2-yl)urea] |
| 0.3 µM | 7 µM | COc1ccc(CNC(=O)NC2CC3(C2)CC(C(=O)N2CCCc4cc(OC(F)F)ccc42)C3)cc1 (stereo not shown) [Compound 103, 1-(6-(6-(difluoromethoxy)-1,2,3,4-tetrahydroquinoline-1-carbonyl)spiro[3.3]heptan-2-yl)-3-(4-methoxybenzyl)urea] |
| 0.7 µM | 2.1 µM | COc1ccc(CNC(=O)NC2CC3(CC(Cc4ccccc4C)C3)C2)cc1 (stereo not shown) [Compound 336, 1-(4-methoxybenzyl)-3-(6-(2-methylbenzyl)spiro[3.3]heptan-2-yl)urea] |
| 1.2 µM | 23.6 µM | COc1ccc(CNC(=O)NC2CC3(C2)CC(C(=O)N2CCN(C(=O)c4ccccc4)CC2)C3)cc1 (stereo not shown) [Compound 62, 1-(6-(4-benzoylpiperazine-1-carbonyl)spiro[3.3]heptan-2-yl)-3-(4-methoxybenzyl)urea] |
| 2.1 µM | 6.5 µM | Cc1ccc(C(=O)N2CCC(CCCCNC(=O)NCc3ccc(Cl)cc3)CC2)cn1 [Compound 309, 1-(4-chlorobenzyl)-3-(4-(1-(6-methylnicotinoyl)piperidin-4-yl)butyl)urea] |
| 3.0 µM | 46.9 µM | COc1ccc(CNC(=O)NC2CC3(C2)CC(C(=O)N2CCN(CC4CC4)CC2)C3)cc1 (stereo not shown) [Compound 112, 1-(6-(4-(cyclopropylmethyl)piperazine-1-carbonyl)spiro[3.3]heptan-2-yl)-3-(4-methoxybenzyl)urea] |
| 4.2 µM | 58.9 µM | COc1ccc(CNC(=O)NC2CC3(C2)CN(C(=O)OC(C)(C)C)C3)cc1 [Compound 37, tert-butyl 6-(3-(4-methoxybenzyl)ureido)-2-azaspiro[3.3]heptane-2-carboxylate] |
| 1.1 µM | 3.9 µM | CN(C(=O)CCCCCNC(=O)NCc1ccc(Cl)cc1)c1cccnc1 [Compound 270, 6-(3-(4-chlorobenzyl)ureido)-N-methyl-N-(pyridin-3-yl)hexanamide] |
| 1.2 µM | 8.4 µM | O=C(NCCCCC1CCN(C(=O)Cc2ccncc2)CC1)NCc1ccc(Cl)cc1 [Compound 295, 1-(4-chlorobenzyl)-3-(4-(1-(2-(pyridin-4-yl)acetyl)piperidin-4-yl)butyl)urea] |
| 3.9 µM | 2 µM | O=C(NCc1ccc(Cl)cc1)NC1CC2(C1)CC(Oc1ccncc1)C2 (stereo not shown) [Compound 341, 1-(4-chlorobenzyl)-3-(6-(pyridin-4-yloxy)spiro[3.3]heptan-2-yl)urea] |
| 15.1 µM | 46.9 µM | O=C(NCc1ccc(Cl)cc1)N[C@H]1C[C@]2(CCN(c3ncccn3)C2)C1 [Compound 170, 1-(4-chlorobenzyl)-3-((2s,4r)-6-(pyrimidin-2-yl)-6-azaspiro[3.4]octan-2-yl)urea] |
| 4.1 µM | 38.7 µM | COc1ccc(CNC(=O)NC2CC3(C2)CN(C(=O)c2cccc(C)c2)C3)cc1 [Compound 146, 1-(4-methoxybenzyl)-3-(2-(3-methylbenzoyl)-2-azaspiro[3.3]heptan-6-yl)urea] |
| 0.5 µM | 0.7 µM | O=C(NCCCCC1CCN(C(=O)c2ccccc2C(F)F)CC1)NCc1ccc(Cl)cc1 [Compound 314, 1-(4-chlorobenzyl)-3-(4-(1-(2-(difluoromethyl)benzoyl)piperidin-4-yl)butyl)urea] |
| 2.8 µM | 4.2 µM | O=C(CCCCCNC(=O)NCc1ccc(Cl)cc1)Nc1ccc(F)cc1 [Compound 284, 6-(3-(4-chlorobenzyl)ureido)-N-(4-fluorophenyl)hexanamide] |
| 11.0 µM | 45.8 µM | COc1ccc(CNC(=O)NC2CC3(C2)CN(C(=O)c2ccc(C#N)cc2)C3)cc1 [Compound 156, 1-(2-(4-cyanobenzoyl)-2-azaspiro[3.3]heptan-6-yl)-3-(4-methoxybenzyl)urea] |
| 1.5 µM | 5.4 µM | Cn1cc(C(=O)N2CCC(CCCCNC(=O)NCc3ccc(Cl)cc3)CC2)nn1 [Compound 312, 1-(4-chlorobenzyl)-3-(4-(1-(1-methyl-1H-1,2,3-triazole-4-carbonyl)piperidin-4-yl)butyl)urea] |
| 17.5 µM | 61.2 µM | COc1ccc(CNC(=O)NC2CC3(C2)CN(C(=O)Nc2cnc(C)nc2)C3)cc1 [Compound 133, 6-(3-(4-methoxybenzyl)ureido)-N-(2-methylpyrimidin-5-yl)-2-azaspiro[3.3]heptane-2-carboxamide] |
| 1.4 µM | 6.4 µM | O=C(NCCCCC1CCN(C(=O)Cc2cn[nH]c2)CC1)NCc1ccc(Cl)cc1 [Compound 316, 1-(4-(1-(2-(1H-pyrazol-4-yl)acetyl)piperidin-4-yl)butyl)-3-(4-chlorobenzyl)urea] |
| 10.4 µM | 17.7 µM | O=C(NCc1ccncc1)NC1CC2(C1)CC(NC(=O)c1ccccc1)C2 (stereo not shown) [Compound 15, N-(6-(3-(pyridin-4-ylmethyl)ureido)spiro[3.3]heptan-2-yl)benzamide] |
| 1.3 µM | 2.7 µM | COc1ccc(CNC(=O)NC2CC3(C2)CC(C(=O)NC2CCCc4ccc(F)cc42)C3)cc1 (stereo in doubt) [Compound 97, (S)-N-(7-fluoro-1,2,3,4-tetrahydronaphthalen-1-yl)-6-(3-(4-methoxybenzyl)ureido)spiro[3.3]heptane-2-carboxamide] |
| 7.1 µM | 9.3 µM | CC(C)c1cccc(C(=O)N2CC[C@]3(C2)C[C@@H](NC(=O)NCc2ccc(Cl)cc2)C3)c1 [Compound 169, 1-(4-chlorobenzyl)-3-((2r,4s)-6-(3-isopropylbenzoyl)-6-azaspiro[3.4]octan-2-yl)urea] |
| 13.7 µM | 6.6 µM | Cc1ccc(C(=O)N2CC3(CC(NC(=O)NCc4ccc(F)cc4)C3)C2)cc1 [Compound 207, 1-(4-fluorobenzyl)-3-(2-(4-methylbenzoyl)-2-azaspiro[3.3]heptan-6-yl)urea] |
| 13.6 µM | 26.8 µM | Cc1cnccc1C(=O)NC1CC2(CC(NC(=O)NCc3ccc(Cl)cc3)C2)C1 (stereo not shown) [Compound 204, N-(6-(3-(4-chlorobenzyl)ureido)spiro[3.3]heptan-2-yl)-3-methylisonicotinamide] |
| 4.1 µM | 47.6 µM | COc1ccc(CNC(=O)NC2CC3(C2)CN(C(=O)c2ccc(C(C)(C)O)cc2)C3)cc1 [Compound 157, 1-(2-(4-(2-hydroxypropan-2-yl)benzoyl)-2-azaspiro[3.3]heptan-6-yl)-3-(4-methoxybenzyl)urea] |

Reference: patent US20230348369A1 (Cytokinetics, Inc., priority 2020, published 2023)
